Reference: US11332463B2, “Spiropiperidine allosteric modulators of nicotinic acetylcholine receptors” (Merck Sharp & Dohme Corp., priority 2018, dated 2022)
pEC50: −log10 of the molar value. Where two headings read alike, the source gives them in different places.

Target: T1, human α7 nicotinic acetylcholine receptor (HEK cell line stably expressing human RIC-3 and human α7) (Homo sapiens, UniProt P36544)
T1 construct: host or cells: HEK cell line (PrecisION hnAChR α7/RIC-3)
Assay: Automated patch-clamp electrophysiology functional assay (Assay A), IonFlux HT, whole-cell population patch
Type: cell-based
Procedure: The α7 nAChR positive allosteric modulator (PAM) activity of the present compounds may be tested using assays known in the art. […] The assay was performed using the IonFlux HT in a whole-cell, population patch configuration. See Golden et al. Assay Drug Dev. Technol. […] The compounds were assessed for their ability to modulate the function of the human 7 nAChR stably expressed in a HEK cell line both in the presence, and in the absence of the natural 7 agonist acetylcholine. By performing a series of such measurements at different concentrations, the effective concentration of the 7 nAChR PAMs (EC50) was determined. See Spencer et al. Assay Drug Dev. Technol.
Direct activation of α7 (agonism), and potentiation of acetylcholine-evoked 7 currents was determined as follows:
Automated patch-clamp electrophysiology was performed using the IonFlux HT (Fluxion Biosciences Inc., San Francisco, Calif.) in the whole-cell, population patch configuration. Test compounds were assessed for their ability to modulate the function of the α7 nicotinic acetylcholine receptor both in the presence, and in the absence of the natural α7 agonist acetylcholine. […] Immediately prior to assay, cells were detached by first aspirating growth media, rinsing with Dulbecco's phosphate buffered saline, and then adding 10 mL of Accutase (Innovative Cell Technologies, San Diego, Calif.) to the flask and then incubating at 37° C. for 5 minutes. Detached cells were then recovered by the addition of 40 mL of CHO-serum-free media supplemented with 25 mM HEPES, and rocked gently in a 50 mL conical tube for 20 minutes prior to patch-clamp assay. After recovery, cells were pelleted by centrifugation at 1,000 RPM for 1 minute in a compact bench top centrifuge; recovery media was aspirated and cells were resuspended in external recording solution (150 mM NaCl, 5 mM KCl, 2 mM CaCl2), 1 mM MgCl2, 10 mM HEPES, 12 mM dextrose) to a density of 5.0×10^6 cells/mL. The cell suspension was added to the cell inlet wells on an IonFlux HT population patch plate which had previously been rinsed and primed with deionized H2O. Test compounds were serially diluted in DMSO and then resuspended to the final test concentration in external recording solution, with, or without 40 μM acetylcholine added to the external recording solution; test compounds were then transferred to the IonFlux HT population patch plate. Internal recording solution (110 mM TrisPO4, 28 mM TrisBase, 0.1 mM CaCl2, 2 mM MgCl2, 11 mM EGTA, 4 mM MgATP) was added to the internal recording solution inlet wells on the IonFlux HT patch plate previously loaded with cells and test compounds, and the plate loaded into the IonFlux HT instrument. A protocol was executed on the IonFlux HT to trap the cells, break into the cells, and establish the whole-cell recording configuration; cells were voltage-clamped at a holding potential of −60 mV for the duration of the experiment, all experiments were conducted at room temperature, and the IonFlux HT injection pressure was 8 psi for solution applications. Upon establishing the whole-cell configuration, external recording solution was perfused into the recording chambers for 120 seconds and then 40 μM acetylcholine was applied for 1 second and immediately washed off with external recording solution for 60 seconds. The 40 μM acetylcholine-evoked α7 current served as the current response to which subsequent test compound effects, in the presence, or in the absence of 40 μM acetylcholine would be quantified relative to. Next, test compounds were evaluated at multiple concentrations for their ability to induce, or modulate 7 current responses; three concentrations of test compound were evaluated in ascending dose fashion per recording.

[1] = HEK cells expressing human α7/RIC-3, test compound with or without 40 μM acetylcholine, holding potential −60 mV, room temperature, read-out: α7 nAChR Potency
[2] = automated patch-clamp electrophysiology functional assay (Assay A), read-out: α7 nAChR EC50

T1 sequence (P36544 23-502): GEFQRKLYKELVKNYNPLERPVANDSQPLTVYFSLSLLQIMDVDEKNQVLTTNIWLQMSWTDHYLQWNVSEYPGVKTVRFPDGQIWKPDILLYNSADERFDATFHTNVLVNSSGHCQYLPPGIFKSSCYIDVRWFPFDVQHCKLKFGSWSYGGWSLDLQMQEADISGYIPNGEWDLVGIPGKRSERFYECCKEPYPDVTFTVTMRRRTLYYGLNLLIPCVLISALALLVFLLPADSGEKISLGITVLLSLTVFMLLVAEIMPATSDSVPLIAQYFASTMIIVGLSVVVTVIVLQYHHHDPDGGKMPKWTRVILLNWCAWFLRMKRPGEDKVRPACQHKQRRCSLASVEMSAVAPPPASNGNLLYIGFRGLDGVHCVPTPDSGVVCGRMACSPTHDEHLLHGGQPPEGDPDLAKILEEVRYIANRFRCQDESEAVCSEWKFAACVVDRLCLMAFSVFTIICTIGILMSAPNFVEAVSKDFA

Structure (SMILES) | pEC50 [1] | pEC50 [2]
Cc1noc(C)c1-c1noc(C2C(F)(F)C23CCN(S(N)(=O)=O)CC3)n1 (racemic) [Example C3] | 6.30 to 7.00 | 6.40
COc1ccc(Cl)cc1-c1noc(C2CC23CCN(S(N)(=O)=O)CC3)n1 (racemic) [Example C13] | 5.30 to 6.30 | –
COc1ccc(Cl)cc1-c1nc(C2CC23CCN(S(C)(=O)=O)CC3)no1 (single isomer, unassigned) [Example 26, 1-[5-(5-Chloro-2-methoxyphenyl)-1,2,4-oxadiazol-3-yl]-6-(methylsulfonyl)-6-azaspiro[2.5]octane] | 6.30 to 7.00 | 6.32
Cc1ccc(C)c(-c2noc([C@@H]3C(F)(F)C34CCN(S(C)(=O)=O)CC4)n2)c1 (stereo in doubt) [Example 32, 2-[3-(2,5-Dimethylphenyl)-1,2,4-oxadiazol-5-yl]-1,1-difluoro-6-(methylsulfonyl)-6-azaspiro[2.5]octane] | 5.30 to 6.30 | 6.04
NS(=O)(=O)N1CCC2(CC1)[C@H](c1ccn(-c3ccc(F)cc3C(F)(F)F)n1)C2(F)F (stereo in doubt) [Example 36, 1,1-Difluoro-2-{1-[4-fluoro-2-(trifluoromethyl)phenyl]-1H-pyrazol-3-yl}-6-azaspiro[2.5]octane-6-sulfonamide] | 5.30 to 6.30 | 6.05
NS(=O)(=O)N1CCC2(CC1)[C@H](c1nsc(-c3ccc(F)cc3C(F)(F)F)n1)C2(F)F (stereo in doubt) [Example 37, 1,1-Difluoro-2-{5-[4-fluoro-2-(trifluoromethyl)phenyl]-1,2,4-thiadiazol-3-yl}-6-azaspiro[2.5]octane-6-sulfonamide] | 5.30 to 6.30 | 5.92
Cc1ccc(C(F)(F)F)cc1-c1nc([C@@H]2CC23CCN(S(N)(=O)=O)CC3)no1 [Example 1, (1R)-1-{5-[2-Methyl-5-(trifluoromethyl)phenyl]-1,2,4-oxadiazol-3-yl}-6-azaspiro[2.5]octane-6-sulfonamide] | > 7.00 | 7.01
Cc1ccc(C)c(-c2nc([C@@H]3CC34CCN(S(N)(=O)=O)CC4)no2)c1 [Example 2, (1R)-1-[5-(2,5-Dimethylphenyl)-1,2,4-oxadiazol-3-yl]-6-azaspiro[2.5]octane-6-sulfonamide] | > 7.00 | 7.09
NS(=O)(=O)N1CCC2(CC2c2nc(-c3cccc(OCC(F)(F)F)c3)no2)C(F)(F)C1 (centres unmarked) [Example 3, 4,4-Difluoro-1-{3-[3-(2,2,2-trifluoroethoxy)phenyl]-1,2,4-oxadiazol-5-yl}-6-azaspiro[2.5]octane-6-sulfonamide] | 5.30 to 6.30 | 5.89
NS(=O)(=O)N1CCC2(CC2c2nc(-c3cccc(OC(F)F)c3)no2)C(F)C1 (centres unmarked) [Example 4, 1-{3-[3-(Difluoromethoxy)phenyl]-1,2,4-oxadiazol-5-yl}-4-fluoro-6-azaspiro[2.5]octane-6-sulfonamide] | 6.30 to 7.00 | 6.46
NS(=O)(=O)N1CCC2(CC1)C[C@H]2c1nc(-c2ccc(F)cc2C(F)(F)F)no1 [Example 5, (1R)-1-{3-[4-Fluoro-2-(trifluoromethyl)phenyl]-1,2,4-oxadiazol-5-yl}-6-azaspiro[2.5]octane-6-sulfonamide] | 5.30 to 6.30 | 5.92
CC1CN(S(N)(=O)=O)CCC12CC2c1nc(-c2ccc(F)cc2C(F)(F)F)no1 (centres unmarked) [Example 6, 1-{3-[4-Fluoro-2-(trifluoromethyl)phenyl]-1,2,4-oxadiazol-5-yl}-4-methyl-6-azaspiro[2.5]octane-6-sulfonamide] | 6.30 to 7.00 | 6.55
NS(=O)(=O)N1CCC2(CC1)C[C@H]2c1csc(-c2cccc(OC(F)(F)F)c2)n1 [Example 7, (1R)-1-{2-[3-(Trifluoromethoxy)phenyl]-1,3-thiazol-4-yl}-6-azaspiro[2.5]octane-6-sulfonamide] | 5.30 to 6.30 | 5.96
Cc1cnn(CC(F)(F)F)c1-c1nc([C@@H]2CC23CCN(S(N)(=O)=O)CC3)no1 [Example 8, (1R)-1-{5-[4-Methyl-1-(2,2,2-trifluoroethyl)-1H-pyrazol-5-yl]-1,2,4-oxadiazol-3-yl}-6-azaspiro[2.5]octane-6-sulfonamide] | 6.30 to 7.00 | 6.64
Cc1cnn(C)c1-c1nc([C@@H]2C(F)(F)C23CCN(S(N)(=O)=O)CC3)no1 [Example 9, (2R)-2-[5-(1,4-Dimethyl-1H-pyrazol-5-yl)-1,2,4-oxadiazol-3-yl]-1,1-difluoro-6-azaspiro[2.5]octane-6-sulfonamide] | > 7.00 | 7.12

Second part, the compound after the results:

pEC50 [1] | pEC50 [2] | Structure (SMILES)
5.30 to 6.30 | 5.57 | NS(=O)(=O)N1CCC2(CC1)C(c1nc(-c3ccc(F)cc3C(F)(F)F)no1)C2(Cl)Cl (racemic) [Example C17]
5.30 to 6.30 | 5.80 | Cc1ccc(C)c(-c2noc(C3(C)C(F)(F)C34CCN(S(N)(=O)=O)CC4)n2)c1 (racemic) [Example C18]
5.30 to 6.30 | 6.12 | COc1ccc(Cl)cc1-c1nc(C2CC23CCN(S(C)(=O)=O)CC3)no1 (racemic) [Example J1]
5.30 to 6.30 | 6.00 | NS(=O)(=O)N1CCC2(CC1)C(c1nsc(N3CCCCC3)n1)C2(F)F (racemic) [Example J2]
5.30 to 6.30 | 6.12 | NS(=O)(=O)N1CCC2(CC2c2nc(-c3cccc(OC(F)F)c3)no2)C(F)C1 (single isomer, unassigned) [Example I1]
5.30 to 6.30 | 6.00 | NS(=O)(=O)N1CCC2(CC2c2nc(-c3cccc(OC(F)F)c3)no2)C(F)C1 (single isomer, unassigned) [Example I2]
5.30 to 6.30 | 5.64 | NS(=O)(=O)N1CCC2(CC2c2nc(-c3ccccc3)no2)C(F)(F)C1 (single isomer, unassigned) [Example I3]
5.30 to 6.30 | 5.82 | Cc1ccc(C)c(-c2noc(C3CC34CCN(S(N)(=O)=O)CC4(F)F)n2)c1 (single isomer, unassigned) [Example I4]
5.30 to 6.30 | 5.92 | CC1CN(S(N)(=O)=O)CCC12CC2c1nc(-c2ccnc(OCC(F)(F)F)c2)no1 (single isomer, unassigned) [Example I5]
5.30 to 6.30 | 6.08 | NS(=O)(=O)N1CCC2(CC2c2nc(-c3conc3C3CC3)no2)C(F)C1 (single isomer, unassigned) [Example I6]
5.30 to 6.30 | 5.82 | NS(=O)(=O)N1CCC2(CC2c2nc(-c3conc3C3CC3)no2)C(F)C1 (single isomer, unassigned) [Example I7]
4.30 to 5.30 | – | NS(=O)(=O)N1CCC2(CC2c2nc(-c3conc3C3CC3)no2)C(F)C1 (single isomer, unassigned) [Example I8]
5.30 to 6.30 | 5.48 | NS(=O)(=O)N1CCC2(CC2c2nc(-c3conc3C3CC3)no2)C(F)C1 (single isomer, unassigned) [Example I9]
5.30 to 6.30 | 5.47 | NS(=O)(=O)N1CCC2(CC2c2nc(-c3conc3C3CC3)no2)C(F)C1 (single isomer, unassigned) [Example I10]
5.30 to 6.30 | 6.22 | NS(=O)(=O)N1CCC2(C(F)C1)C(c1nc(-c3conc3C3CC3)no1)C2(F)F (single isomer, unassigned) [Example I13]
6.30 to 7.00 | 6.48 | NS(=O)(=O)N1CCC2(C(F)C1)C(c1nc(-c3conc3C3CC3)no1)C2(F)F (single isomer, unassigned) [Example I14]
> 7.00 | 7.06 | Cc1ccc(C)c(-c2nc(C3C(F)(F)C34C3CCC4CN(S(N)(=O)=O)C3)no2)c1 (single isomer, unassigned) [Example K1]
